Assay results published in ChEMBL document CHEMBL3885861, “Open TG-GATES”.

Species: Rattus norvegicus
Test: Open TG-GATES - Regimen: Daily Repeat
Format: toxicity, organism-based, Sprague-Dawley
Parameters: regimen Daily Repeat, gender Male, age 6 weeks
Conditions: in vivo, po, 0 mg/kg, route gavage, dose level Control; for APTT / Bas / Eos / Fbg / Hb / Ht / Lym / MCH / MCHC / MCV / Mono / Neu / PT / Plat / RBC / Ret / WBC: tissue Blood; for KIDNEY_L / KIDNEY_R / KIDNEY_TOTAL: tissue Kidney; for LIVER: tissue Liver; for A/G / ALP / ALT / AST / BUN / CRE / Ca / Cl / DBIL / GLC / IP / K / LDH / Na / PL / RALB / TBIL / TC / TG / TP / gamma-GTP: tissue Plasma

In the case of `CCCc1cc(=O)[nH]c(=S)[nH]1` [PROPYLTHIOURACIL], the TERMINAL_BW (72 h, time 3 day) is reported as 207.9 g, the APTT (72 h, time 3 day) is reported as 16.3 s and the Bas (72 h, time 3 day) is reported as 0%. For the same molecule, the Eos (72 h, time 3 day) was 0.8%, the Fbg (72 h, time 3 day) was 235 mg/dL and the Hb (72 h, time 3 day) was 13.5 g/dL. For the same molecule, the Ht (72 h, time 3 day) was 40.7%, the Lym (72 h, time 3 day) was 73.4% and the MCH (72 h, time 3 day) was 21.7 pg. For the same molecule, the MCHC (72 h, time 3 day) was 33.2%, the MCV (72 h, time 3 day) was 65.5 fL and the Mono (72 h, time 3 day) was 8.4%. The Neu (72 h, time 3 day) was 17.4%, the PT (72 h, time 3 day) was 12 s and the Plat (72 h, time 3 day) was 113.1 x10_4/uL. The RBC (72 h, time 3 day) was 622 x10_4/ul, the Ret (72 h, time 3 day) was 7.6% and the WBC (72 h, time 3 day) was 141.8 x10_2/uL. It also gave a KIDNEY_L (72 h, time 3 day) of 0.9 g, a KIDNEY_R (72 h, time 3 day) of 1 g and a KIDNEY_TOTAL (72 h, time 3 day) of 1.9 g. It also gave an LIVER (72 h, time 3 day) of 10.1 g, an A/G (72 h, time 3 day) of 1.9 and an ALP (72 h, time 3 day) of 904.6 IU/L. For the same molecule, the ALT (72 h, time 3 day) was 38.6 IU/L, the AST (72 h, time 3 day) was 65.4 IU/L and the BUN (72 h, time 3 day) was 20.6 mg/dL. The CRE (72 h, time 3 day) was 0.5 mg/dL, the Ca (72 h, time 3 day) was 11.5 mg/dL and the Cl (72 h, time 3 day) was 103.4 meq/L. For the same molecule, the DBIL (72 h, time 3 day) was 0.022 mg/dL, the GLC (72 h, time 3 day) was 192.8 mg/dL and the IP (72 h, time 3 day) was 8.7 mg/dL. The K (72 h, time 3 day) was 5 meq/L, the LDH (72 h, time 3 day) was 90.6 IU/L and the Na (72 h, time 3 day) was 137.4 meq/L. It also gave a PL (72 h, time 3 day) of 160.8 mg/dL, an RALB (72 h, time 3 day) of 3.9 g/dL and a TBIL (72 h, time 3 day) of 0.3 mg/dL. It also gave a TC (72 h, time 3 day) of 85.6 mg/dL, a TG (72 h, time 3 day) of 98.8 mg/dL and a TP (72 h, time 3 day) of 6 g/dL. It also gave a gamma-GTP (72 h, time 3 day) of 2 IU/L, a TERMINAL_BW ([…], time 7 day) of 242.6 g and a TERMINAL_BW ([…], time 14 day) of 275 g. It also gave a TERMINAL_BW ([…], time 28 day) of 364.4 g, an APTT ([…], time 7 day) of 16 s and a Bas ([…], time 7 day) of 0%. For the same molecule, the Eos ([…], time 7 day) was 0.8%, the Fbg ([…], time 7 day) was 232.4 mg/dL and the Hb ([…], time 7 day) was 13.8 g/dL. It also gave a Ht ([…], time 7 day) of 41%, a Lym ([…], time 7 day) of 77.8% and an MCH ([…], time 7 day) of 21.4 pg. For the same molecule, the MCHC ([…], time 7 day) was 33.6%, the MCV ([…], time 7 day) was 63.6 fL and the Mono ([…], time 7 day) was 5.6%. For the same molecule, the Neu ([…], time 7 day) was 15.8%, the PT ([…], time 7 day) was 12 s and the Plat ([…], time 7 day) was 105.3 x10_4/uL. The RBC ([…], time 7 day) was 643.8 x10_4/ul, the Ret ([…], time 7 day) was 6.7% and the WBC ([…], time 7 day) was 127.9 x10_2/uL. The APTT ([…], time 14 day) was 16.2 s, the Bas ([…], time 14 day) was 0% and the Eos ([…], time 14 day) was 0.2%. It also gave a Fbg ([…], time 14 day) of 220.4 mg/dL, a Hb ([…], time 14 day) of 14.7 g/dL and a Ht ([…], time 14 day) of 43.9%. For the same molecule, the Lym ([…], time 14 day) was 80.8%, the MCH ([…], time 14 day) was 21 pg and the MCHC ([…], time 14 day) was 33.4%. It also gave an MCV ([…], time 14 day) of 63 fL, a Mono ([…], time 14 day) of 4% and a Neu ([…], time 14 day) of 15%. The PT ([…], time 14 day) was 12.1 s, the Plat ([…], time 14 day) was 105.2 x10_4/uL and the RBC ([…], time 14 day) was 697.6 x10_4/ul. The Ret ([…], time 14 day) was 5%, the WBC ([…], time 14 day) was 125.5 x10_2/uL and the APTT ([…], time 28 day) was 16.6 s. The Bas ([…], time 28 day) was 0%, the Eos ([…], time 28 day) was 0.6% and the Fbg ([…], time 28 day) was 223.8 mg/dL. For the same molecule, the Hb ([…], time 28 day) was 15.3 g/dL, the Ht ([…], time 28 day) was 45.9% and the Lym ([…], time 28 day) was 86.8%. The MCH ([…], time 28 day) was 19.5 pg, the MCHC ([…], time 28 day) was 33.4% and the MCV ([…], time 28 day) was 58.4 fL. It also gave a Mono ([…], time 28 day) of 3.8%, a Neu ([…], time 28 day) of 8.8% and a PT ([…], time 28 day) of 12.1 s. The Plat ([…], time 28 day) was 105.4 x10_4/uL, the RBC ([…], time 28 day) was 786.4 x10_4/ul and the Ret ([…], time 28 day) was 2.8%. For the same molecule, the WBC ([…], time 28 day) was 95.2 x10_2/uL, the KIDNEY_L ([…], time 7 day) was 1.1 g and the KIDNEY_R ([…], time 7 day) was 1.1 g. The KIDNEY_TOTAL ([…], time 7 day) was 2.1 g, the KIDNEY_L ([…], time 14 day) was 1.1 g and the KIDNEY_R ([…], time 14 day) was 1.1 g. The KIDNEY_TOTAL ([…], time 14 day) was 2.2 g, the KIDNEY_L ([…], time 28 day) was 1.3 g and the KIDNEY_R ([…], time 28 day) was 1.3 g. The KIDNEY_TOTAL ([…], time 28 day) was 2.6 g, the LIVER ([…], time 7 day) was 11.7 g and the LIVER ([…], time 14 day) was 12.2 g. The LIVER ([…], time 28 day) was 15.2 g, the A/G ([…], time 7 day) was 1.8 and the ALP ([…], time 7 day) was 1082.6 IU/L. For the same molecule, the ALT ([…], time 7 day) was 34.2 IU/L, the AST ([…], time 7 day) was 67.4 IU/L and the BUN ([…], time 7 day) was 20.8 mg/dL. The CRE ([…], time 7 day) was 0.5 mg/dL, the Ca ([…], time 7 day) was 11.5 mg/dL and the Cl ([…], time 7 day) was 106.2 meq/L. For the same molecule, the DBIL ([…], time 7 day) was 0.016 mg/dL, the GLC ([…], time 7 day) was 180 mg/dL and the IP ([…], time 7 day) was 8 mg/dL. It also gave a K ([…], time 7 day) of 5.2 meq/L, an LDH ([…], time 7 day) of 95.6 IU/L and a Na ([…], time 7 day) of 139 meq/L. It also gave a PL ([…], time 7 day) of 158.4 mg/dL, an RALB ([…], time 7 day) of 3.9 g/dL and a TBIL ([…], time 7 day) of 0.4 mg/dL. The TC ([…], time 7 day) was 77 mg/dL, the TG ([…], time 7 day) was 127 mg/dL and the TP ([…], time 7 day) was 6.1 g/dL. It also gave a gamma-GTP ([…], time 7 day) of 1.8 IU/L, an A/G ([…], time 14 day) of 1.8 and an ALP ([…], time 14 day) of 719.8 IU/L. The ALT ([…], time 14 day) was 30 IU/L, the AST ([…], time 14 day) was 59.4 IU/L and the BUN ([…], time 14 day) was 18.8 mg/dL. For the same molecule, the CRE ([…], time 14 day) was 0.7 mg/dL, the Ca ([…], time 14 day) was 11 mg/dL and the Cl ([…], time 14 day) was 107.4 meq/L. It also gave a DBIL ([…], time 14 day) of 0.006 mg/dL, a GLC ([…], time 14 day) of 183.6 mg/dL and an IP ([…], time 14 day) of 8.1 mg/dL. It also gave a K ([…], time 14 day) of 4.4 meq/L, an LDH ([…], time 14 day) of 87.4 IU/L and a Na ([…], time 14 day) of 140.8 meq/L. The PL ([…], time 14 day) was 150.4 mg/dL, the RALB ([…], time 14 day) was 3.9 g/dL and the TBIL ([…], time 14 day) was 0.3 mg/dL. It also gave a TC ([…], time 14 day) of 69.4 mg/dL, a TG ([…], time 14 day) of 111.2 mg/dL and a TP ([…], time 14 day) of 6.1 g/dL. For the same molecule, the gamma-GTP ([…], time 14 day) was 0.8 IU/L, the A/G ([…], time 28 day) was 1.8 and the ALP ([…], time 28 day) was 612.6 IU/L. The ALT ([…], time 28 day) was 27 IU/L, the AST ([…], time 28 day) was 59.8 IU/L and the BUN ([…], time 28 day) was 20.6 mg/dL. For the same molecule, the CRE ([…], time 28 day) was 0.7 mg/dL, the Ca ([…], time 28 day) was 10.8 mg/dL and the Cl ([…], time 28 day) was 106.8 meq/L. It also gave a DBIL ([…], time 28 day) of 0.012 mg/dL, a GLC ([…], time 28 day) of 169.4 mg/dL and an IP ([…], time 28 day) of 6.7 mg/dL. For the same molecule, the K ([…], time 28 day) was 4.5 meq/L, the LDH ([…], time 28 day) was 84 IU/L and the Na ([…], time 28 day) was 139.8 meq/L. The PL ([…], time 28 day) was 161.6 mg/dL, the RALB ([…], time 28 day) was 4 g/dL and the TBIL ([…], time 28 day) was 0.2 mg/dL. It also gave a TC ([…], time 28 day) of 76.6 mg/dL, a TG ([…], time 28 day) of 153.8 mg/dL and a TP ([…], time 28 day) of 6.3 g/dL. The gamma-GTP ([…], time 28 day) was 1.6 IU/L.
